Reference: patent EP0181578B1, “Antibiotic polypeptide, process for its preparation and its use” (Dr. Karl Thomae GmbH, priority 1984, dated 1991)
Ends that are not written are not given here.

Legend:
[1] = test system: Staphylococcus epidermidis DSM 3095; assay: Resistance and sensitivity of the producer strain (strain characterisation, adaptation to rising Epidermin concentrations); format: cell-based; details: for Sonstige Resistenzen: in Flüssigkultur, marked resistance
Excerpt: Der zur Herstellung von Epidermin verwendete Stamm wird nach Schleifer & Kloos (Int. J. Syst. Bact. 25, 50-61 (1975)) wie folgt charakterisiert: Gramfärbung : positiv Zellgröße : Durchmesser 0,5-0,8 µm Koloniengröße : ca. 1 mm Durchmesser Aussehen der Kolonien : glatt, glänzend, in der Mitte leicht erhöht Kolonienfarbe : gräulich - weiß Zellen in Kultur : oft Einzelzellen oder Zweier-Pakete, selten größere Haufen Hämolyse : auf Blutplatten ausgestrichene Kulturen zeigten starke Hämolyse Anaerobes Wachstum : der Stamm wächst auch unter anaeroben Bedingungen Lysozymempfindlichkeit: : die Zellen sind bis 2 mg/ml resistent gegen Lysozym Lysostaphinempfindlichkeit : die Zellen sind schon bei 20 µg/ml sensitiv für Lysostaphin Epidermin-Resistenz : bis 1 mg/ml nachgewiesen Sonstige Resistenzen : in Flüssigkultur zeigt der Stamm eine ausgeprägte Resistenz gegenüber Streptomycin (bis 1 mg/ml) und Spectinomycin (0,5 mg/ml) Erhöhter NaCl-Gehalt : Der Stamm wächst noch gut bis 15% Gew.-% Natriumchlorid.
(§1) Der neue Klon DSM 3095 wurde wie folgt gewonnen: Die Adaption wurde in 100 ml Erlenmeyerkölbchen mit einem seitlichen Einstich und 10 ml Nährlösung (Brain Heart Infusion) durchgeführt. Die Startkultur wurde mit 0,5 ml einer 12 Stunden alten Kultur angeimpft. Für die Kölbchen, die steigende Epidermin-Konzentrationen enthielten, dienten 0,5 ml der jeweils vorangegangenen, gutgewachsenen Kultur als Impfmaterial. Die Beurteilung des Wachstums erfolgte photometrisch bei 578 nm. […] Als Vergleichswert wurde eine unverdünnte 12 Stunden alte Kultur des literaturbekannten Vergleichsstammes NCIB 11536 ausplattiert. Nach 24 Stunden Inkubation bei 37°C zeigten sich bei der auf 10⁻⁶ verdünnten adaptierten Kultur 94 Einzelkolonien. […] Die resistenten Kolonien wurden selektioniert und auf Platten Medium 2 im Raster ausgestrichen. Nach einem Vortest auf Produktion durch Ausstechen von Stückchen mit 5 mm Durchmesser und Aktivitätstest auf Micrococcus luteus ATCC 9341 wurden produzierende Klone im Flüssigmedium getestet.

[2] = test system: verschiedener Mikroorganismen; assay: Plate diffusion test, spectrum of activity; format: cell-based; details: for Empfindlichkeit verschiedener Mikroorganismen: Plattendiffusionstest, Tabelle 2
Excerpt: Während der Herstellung und Isolierung des Epidermins wurde zur biologischen Charakterisierung der Plattendiffusionstest angewandt; nämlich zur Aufnahme des Wirkungsspektrums sowie zur Kontrolle von Produktion, Aufarbeitung und Anreicherung. Der Test wurde, wie bei Zähner und Maas, Biology of antibiotics (Springer Verlag, Berlin-Heidelberg-New York, 1972) beschrieben, in Petrischalen der Firma Greiner, Nürtingen mit Filterrondellen von 6 mm Durchmesser (Macherey & Nagel, Düren) durchgeführt. Die Filterrondellen wurden mit 20 µl der betreffenden Testflüssigkeit benetzt, bei Raumtemperatur auf einer Glasplatte getrocknet und auf die Testplatten aufgelegt. Die Testplatten wurden bei 37°C inkubiert und nach ca. 16 Stunden die Wachstumshemmung ausgewertet. Als Routinetestkeim diente Streptococcus pyogenes ATCC 8668 und, aufgrund seiner problemloseren Handhabung, Micrococcus luteus ATCC 9341. Testplatten mit Streptococcus pyogenes ATCC 8668: Der Testkeim mußte vor Herstellung der Testplatten auf Blutplatten mit Mucin [Medium: 500 ml Agar pH 7,4, 160 ml Mucinlösung (10 Gewichtsprozent), 3,5 ml Glucoselösung (50 Gewichtsprozent), 70 ml Hammelblut] frisch überimpft werden. Nach 15-18 Stunden Inkubation bei 37°C wurde eine Salinesuspension (E₅₇₈ 0,5) hergestellt und 1 ml dieser Suspension zu 100 ml Nährboden (Medium: Pepton 10 g, Fleischextrakt 8 g, Kochsalz 3 g, Na₂HPO₄ 2 g, Glucose 10 g auf 1 l, pH 7,2) pipettiert. Die zu 10 ml Portionen gegossenen Platten waren einige Tage bei 4°C haltbar. Testplatten mit Micrococcus luteus ATCC 9341: Eine Übernachtkultur (Medium: Pepton 10 g, Fleischextrakt 8 g, Kochsalz 3 g, Na₂HPO₄ 2 g, Glucose 10 g auf 1 l, pH 7,2) wurde auf eine Extinktion von 1,0 bei 578 nm verdünnt. Mit 0,25 ml dieser Suspension wurden 100 ml Agar angeimpft und Platten zu 10 ml gegossen. Die Testplatten konnten mehrere Tage bei 4°C aufbewahrt werden. […]

[3] = Solubility (characterisation data); format: physicochemical
Excerpt: (§2) Die neue Verbindung Epidermin kann durch folgende Angaben charakterisert werden: • 1. Natur: farbloses Pulver • 2. […] Methanol/Eisessig, löslich in niederen Alkoholen, unlöslich in Chloroform, Aceton, Diethylether, Petrolether. • 3. Farbreaktion auf Kieselgelplatten: Ninhydrin, Chlor/TDM (TDM=4,4'-Bis-(dimethylamino)diphenylmethan), Orcin/Schwefelsäure, Anisaldehyd/Schwefelsäure. Zerstörungsfreier Nachweis im UV-Licht bei 254 nm und durch Sprühen mit Wasser. • 4. Dünnschichtchromatographie: Es wurden Kieselgelfertigplatten 60 F₂₅₄ (Merck) verwendet. System A: Chloroform/Methanol/17% Ammoniak (2/2/1), RF = 0,73 System B: Chloroform/Methanol/17% Ammoniak (70/35/10) RF = 0,30 System C: n-Butanol/Eisessig/Wasser (4/1/1) RF = 0,05 • 5. HPLC : siehe Abb. 7. • 6. […] Molmasse: im Bereich von 2160. Je nach Isolierungsmethoden können als Anionen, z.B. Chlorid, Acetat oder Phosphat, enthalten sein. • 8. Ultraviolettabsorptionsspektrum: In wässriger Lösung langwelliges Maximum bei 267 nm (Abb. 3). • 9. Infrarotabsorptionsspektrum: IR-Spektrum einer Probe in einer Kaliumbromidtablette (Abb. 4). • 10. Kernmagnetische Resonanzspektren ¹H-NMR Spektrum: Abb. 5, ¹³C-NMR-Spektrum: Abb. 6

[4] = pH stability, retention of antibiotic activity in aqueous solutions of different pH; format: physicochemical
Excerpt: as §2
Stabilitätstests und chromatographische Untersuchungen wurden am lyophylisierten Butanolextrakt durchgeführt. Die Inkubation des Extraktes mit wässrigen Lösungen verschiedener pH-Werte ergab ab pH 10 eine starke Abnahme der Aktivität, im Bereich von pH 2-7 ist das Antibiotikum jedoch stabil.

Zellen = assay: Mode of action (bactericidal, lysis of cells); format: cell-based; details: leads to lysis of the cells; same as the culture broth
[5] = test system: Propionibakteriumacnes-Stämme; assay: Plate diffusion test and minimal inhibitory concentration (Tables 2 and 3); format: cell-based, Propionibacterium acnes; details: summary of Tabellen 2 und 3
Excerpt: Während der Herstellung und Isolierung des Epidermins wurde zur biologischen Charakterisierung der Plattendiffusionstest angewandt; nämlich zur Aufnahme des Wirkungsspektrums sowie zur Kontrolle von Produktion, Aufarbeitung und Anreicherung. Der Test wurde, wie bei Zähner und Maas, Biology of antibiotics (Springer Verlag, Berlin-Heidelberg-New York, 1972) beschrieben, in Petrischalen der Firma Greiner, Nürtingen mit Filterrondellen von 6 mm Durchmesser (Macherey & Nagel, Düren) durchgeführt. Die Filterrondellen wurden mit 20 µl der betreffenden Testflüssigkeit benetzt, bei Raumtemperatur auf einer Glasplatte getrocknet und auf die Testplatten aufgelegt. Die Testplatten wurden bei 37°C inkubiert und nach ca. 16 Stunden die Wachstumshemmung ausgewertet. Als Routinetestkeim diente Streptococcus pyogenes ATCC 8668 und, aufgrund seiner problemloseren Handhabung, Micrococcus luteus ATCC 9341. Testplatten mit Streptococcus pyogenes ATCC 8668: Der Testkeim mußte vor Herstellung der Testplatten auf Blutplatten mit Mucin [Medium: 500 ml Agar pH 7,4, 160 ml Mucinlösung (10 Gewichtsprozent), 3,5 ml Glucoselösung (50 Gewichtsprozent), 70 ml Hammelblut] frisch überimpft werden. […]

[6] = test system: Vergleichsstamm NCIB 11536; assay: Growth of the comparison strain on plates containing Epidermin; format: cell-based, Staphylococcus epidermidis; details: undiluted 12 h culture on plates with 0,15 mg/ml Epidermin, 48 Stunden
Description: as §1

[7] = in vivo
[8] = test system: Staphylococcus epidermidis NCIB 11536; assay: Biophotometer test, Epidermin added in different growth phases; format: cell-based
Description: (§3) Die Versuche zur Eigenhemmung des Produzentenstammes durch das Antibiotikum und die Untersuchung auf Resistenz der selektionierten Klone wurden im Biophotometer (Eppendorf-Photometer mit Umlaufautomat) durchgeführt.
(§4) Diese Versuche können z.B. im einzelnen wie folgt durchgeführt werden: Jeweils 0,5 ml einer 12 Stunden Kultur von Staphylococcus epidermidis NCIB 11536 bzw. des selektionierten resistenten Stammes DMS 3095 wurden auf frisches Medium überimpft.
(§5) Diese Kulturen ließ man bis zu einer Extinktion von 0,043 bei 578 nm hochwachsen (Küvetten mit einer Schichtdicke von 1 cm) und verteilte sie dann in Portionen zu 7,5 ml in die Küvetten des Biophotometers (Schichtdicke 2 cm).
(§6) Die Dichte der Zellsuspension wurde im Biophotometer auf eine Transmission von 90% eingestellt. Die Inkubation erfolgte bei 37°C und maximaler Belüftung. Epidermin wurde als wässrige Lösung in unterschiedlichen Wachstumsphasen zugegeben.
(§7) Bei beiden Stämmen wurden zu Beginn und in der Mitte der logarithmischen Phase unterschiedliche Epidermin-Konzentrationen zugegeben. Die Ergebnisse sind in Abbildung 13 und 14 dargestellt.

[9] = test system: resistenter Klon DSM 3095; assay: as above; format: cell-based, Staphylococcus epidermidis
Description: as §3, §4, §5, §6, §7

Compound: CN[C@@H]1[C@H](O)[C@H](NC)[C@H]2O[C@@]3(O)C(=O)C[C@@H](C)O[C@H]3O[C@@H]2[C@H]1O [Spectinomycin]
- Sonstige Resistenzen [1]: 0,5 mg/ml

Compound: [H]/N=C(/N)N[C@H]1[C@H](O)[C@@H](O)[C@H](O[C@@H]2O[C@@H](C)[C@](O)(C=O)[C@H]2O[C@@H]2O[C@@H](CO)[C@H](O)[C@@H](O)[C@@H]2NC)[C@@H](N/C(N)=N\[H])[C@@H]1O [Streptomycin]
- Sonstige Resistenzen [1]: ≤ 1 mg/mL

Compound: Epidermin: ribosomal synthetisiertes, heterodet tetracyclisches Dokosapeptidantibiotikum aus Staphylococcus epidermidis DSM 3095 (IASKFICTPGCAKTGSFNSYCC; also: heterodetic tetracyclic lantibiotic, rings and modified residues not placed; UniProt P08136 31-52, looked up)
- Empfindlichkeit verschiedener Mikroorganismen [2]: fast ausschließlich auf grampositive Bakterien wirken
- antibakterielle Wirksamkeit ([2]; especially good against a whole series of gram-positive bacteria): sehr gute antibakterielle Wirksamkeit
- Löslichkeit ([3]; in Chloroform, Aceton, Diethylether, Petrolether): unlöslich
- Löslichkeit ([3]; in Mischungen aus Wasser/Eisessig bzw. Methanol/Eisessig): Sehr gut löslich
- Löslichkeit ([3]; in niederen Alkoholen): löslich
- Stabilität ([4]; bei höheren pH-Werten (above pH 7)): starker Aktivitätsabfall
- Stabilität ([4]; pH=2 bis pH=7): Stabil
- Stabilität ([4]; tested on lyophilised butanol extract, pH 2-7): stabil
- Wirkung (Zellen): bakterizide Wirkung
- Wirksamkeit [5]: sehr gute Wirksamkeit
- Wachstum [6]: wuchs auch nach 48 Stunden Inkubation nicht
- Verträglichkeit [7]: sehr gut verträglich
- toxische Wirkungen [7]: keine toxischen Wirkungen
- Wachstumsverlauf ([8]; Abb. 13 Kurve 2: 10 µg/ml zu Beginn der logarithmischen Phase): Lyse
- Wachstumsverlauf ([8]; Abb. 13 Kurve 3: 10 µg/ml in der Mitte der logarithmischen Phase): Lyse
- Wachstumsverlauf ([8]; Abb. 13 Kurve 4: 2,5 µg/ml in der Mitte der logarithmischen Phase): Wachstumsverzögerung
- Wachstumsverlauf ([9]; Abb. 14 Kurve 2: 120 µg/ml zu Beginn der logarithmischen Phase): geringfügige Wachstumsverzögerung
- Wachstumsverlauf ([9]; Abb. 14 Kurve 3: 360 µg/ml in der Mitte der logarithmischen Phase): Wachstumsverzögerung
- Lyse ([9]; all concentrations tested so far): keine Lyse
- Einzelkolonien ([1]; adapted culture diluted to 10⁻⁶, plate with 0,5 mg/ml Epidermin, 24 Stunden 37°C): 94
- Wachstum ([1]; adapted culture, 1,0 mg/ml Epidermin in Flüssigkultur): noch gut gewachsen
- Resistenz ([1]; against the Epidermin it produces itself): resistent
- Epidermin-Resistenz ([1]; resistance shown up to this concentration): ≤ 1 mg/mL

Compound: Nisin (ITSISLCTPGCKTGALMGCNMKTATCHCSIHVSK; also: lantibiotic: thioether rings and dehydro residues, not placed; UniProt P13068 24-57, looked up) [Vergleichsantibiotikum (vgl. DE-A-2 000 818 bzw. GB-B-1 182 156), Aktivität von 40000 units, reference compound]
- Empfindlichkeit verschiedener Mikroorganismen ([2]; Nisin mit einer Aktivität von 40000 units): fast ausschließlich auf grampositive Bakterien wirken
